Tested on: adult zebrafish, paclitaxel induced nerve damage
Experiment: Paclitaxel-induced peripheral neuropathy in adult zebrafish (tail fin stimulation)
Assay type: in vivo
Details: 3 μL of 10-μM paclitaxel, four consecutive days (Days 2-5), FIG. 9
Method: Method to evaluate potential of compounds of Formula 1 to reduce or block chemotherapy-induced peripheral neuropathy—Animal (zebrafish) model described below and in literature (Lisse T S et al PNAS 113 (15) E2189-E2198) was used to evaluate potential of compounds of Formula 1 to reduce or block neuronal damage induced by chemotherapeutics.
To induce peripheral neuropathy in adult zebrafish, 3 μL of a 10-μM paclitaxel solution in 0.15% DMSO was administered with a 33 gauge Hamilton Syringe for a zebrafish with average ˜200 mg body weight. Fish were treated with vehicle alone or paclitaxel for four consecutive days (Days 2-5) or paclitaxel with Compound A (10- or 30 ng). Compound A was dosed orally by mixing with the fish feed pellets. Fishes were conditioned to consume three pellets a day. […] To prepare test compound infused pellet, a known quantity of the compound was mixed with the known quantity of the feed powder and were extruded in to 4 mg pellet containing the desired administration dose per pellet. Concentration of test compound dosed per fish were controlled by the number of pellets and the quantity of compound per pellet. […]
To determine the peripheral nerve damage, fish were wrapped in plastic foil until calm, and the distal tail fin was stimulated with an insect pin until twitching of the fish was observed. Number of stimuli until twitch was recorded.

CC(=O)O[C@H]1C(=O)[C@@]2(C)[C@H]([C@H](OC(=O)c3ccccc3)[C@]3(O)C[C@H](OC(=O)[C@H](O)[C@@H](NC(=O)c4ccccc4)c4ccccc4)C(C)=C1C3(C)C)[C@]1(OC(C)=O)CO[C@@H]1C[C@@H]2O [paclitaxel]
peripheral nerve damage (number of stimuli until twitch) compared to vehicle alone: significant nerve damage
